Assays:
Format in all cases: ADME
[1] = (§1) The drug is tested on Lactobacillus ruminis strain: ATCC25644 for biotransformation under microaerobic condition. The drug concentrations were measured over 6 timepoints collected between 0 and 12 hours of incubation by liquid-chromatography-coupled mass spectrometry (LC–MS); design: dose 5 uM, timepoint 0, 1.5, 3, 6, 9, 12 hours; details: ligilactobacillus ruminis, 5 µM
[2] = (§2) The drug is tested on Clostridium scindens strain: DSM5676 for biotransformation under anaerobic condition. The drug concentrations were measured over 6 timepoints collected between 0 and 12 hours of incubation by liquid-chromatography-coupled mass spectrometry (LC–MS); design: dose 5 uM, timepoint 0, 1.5, 3, 6, 9, 12 hours; details: 5 µM
[3] = The drug is tested on Streptococcus sanguinis strain: DSM20567 for biotransformation under microaerobic condition. The drug concentrations were measured over 6 timepoints collected between 0 and 12 hours of incubation by liquid-chromatography-coupled mass spectrometry (LC–MS); design: dose 5 uM, timepoint 0, 1.5, 3, 6, 9, 12 hours; details: 5 µM
[4] = as §1, with “the gut metagenome community of A-07 with ENA study accession number: PRJEB31790” for “Lactobacillus ruminis strain: ATCC25644”, “7” for “6”; design: dose 5 uM, timepoint 0, 0.75, 1.5, 3, 6, 9, 12 hours; details: 5 µM
[5] = The drug is tested on Streptococcus mitis strain: DSM12643 for biotransformation under anaerobic condition. The drug concentrations were measured over 6 timepoints collected between 0 and 12 hours of incubation by liquid-chromatography-coupled mass spectrometry (LC–MS); design: dose 5 uM, timepoint 0, 1.5, 3, 6, 9, 12 hours; details: 5 µM
[6] = The drug is tested on Actinomyces naeslundi strain: DSM43013 for biotransformation under microaerobic condition. The drug concentrations were measured over 6 timepoints collected between 0 and 12 hours of incubation by liquid-chromatography-coupled mass spectrometry (LC–MS); design: dose 5 uM, timepoint 0, 1.5, 3, 6, 9, 12 hours; details: actinomyces naeslundii, 5 µM
[7] = The drug is tested on Bacteroides caccae strain: DSM19024 for biotransformation under anaerobic condition. The drug concentrations were measured over 6 timepoints collected between 0 and 12 hours of incubation by liquid-chromatography-coupled mass spectrometry (LC–MS); design: dose 5 uM, timepoint 0, 1.5, 3, 6, 9, 12 hours; details: 5 µM
[8] = as §1, with “the gut metagenome community of P-01 with ENA study accession number: PRJEB31790” for “Lactobacillus ruminis strain: ATCC25644”, “7” for “6”; design: dose 5 uM, timepoint 0, 0.75, 1.5, 3, 6, 9, 12 hours; details: 5 µM
[9] = The drug is tested on Prevotella copri strain: DSM18205 for biotransformation under anaerobic condition. The drug concentrations were measured over 6 timepoints collected between 0 and 12 hours of incubation by liquid-chromatography-coupled mass spectrometry (LC–MS); design: dose 5 uM, timepoint 0, 1.5, 3, 6, 9, 12 hours; details: segatella copri, 5 µM
[10] = The drug is tested on Lactobacillus fermentum strain: DSM20052 for biotransformation under microaerobic condition. The drug concentrations were measured over 6 timepoints collected between 0 and 12 hours of incubation by liquid-chromatography-coupled mass spectrometry (LC–MS); design: dose 5 uM, timepoint 0, 1.5, 3, 6, 9, 12 hours; details: limosilactobacillus fermentum, 5 µM
[11] = The drug is tested on Dorea formicigenerans strain: DSM3992 for biotransformation under anaerobic condition. The drug concentrations were measured over 6 timepoints collected between 0 and 12 hours of incubation by liquid-chromatography-coupled mass spectrometry (LC–MS); design: dose 5 uM, timepoint 0, 1.5, 3, 6, 9, 12 hours; details: 5 µM
[12] = The drug is tested on Enterococcus faecalis strain: ATCC29212 for biotransformation under anaerobic condition. The drug concentrations were measured over 6 timepoints collected between 0 and 12 hours of incubation by liquid-chromatography-coupled mass spectrometry (LC–MS); design: dose 5 uM, timepoint 0, 1.5, 3, 6, 9, 12 hours; details: 5 µM
[13] = as §1, with “the gut metagenome community of A-10 with ENA study accession number: PRJEB31790” for “Lactobacillus ruminis strain: ATCC25644”, “7” for “6”; design: dose 5 uM, timepoint 0, 0.75, 1.5, 3, 6, 9, 12 hours; details: 5 µM
[14] = as §2, with “the gut metagenome community of T-02 with ENA study accession number: PRJEB31790” for “Clostridium scindens strain: DSM5676”, “7” for “6”; design: dose 5 uM, timepoint 0, 0.75, 1.5, 3, 6, 9, 12 hours; details: 5 µM
[15] = The drug is tested on Bifidobacterium adolescentis strain: DSM20083 for biotransformation under anaerobic condition. The drug concentrations were measured over 6 timepoints collected between 0 and 12 hours of incubation by liquid-chromatography-coupled mass spectrometry (LC–MS); design: dose 5 uM, timepoint 0, 1.5, 3, 6, 9, 12 hours; details: 5 µM
[16] = as §1, with “the gut metagenome community of T-05 with ENA study accession number: PRJEB31790” for “Lactobacillus ruminis strain: ATCC25644”, “7” for “6”; design: dose 5 uM, timepoint 0, 0.75, 1.5, 3, 6, 9, 12 hours; details: 5 µM
[17] = as §1, with “the gut metagenome community of P-03 with ENA study accession number: PRJEB31790” for “Lactobacillus ruminis strain: ATCC25644”, “7” for “6”; design: dose 5 uM, timepoint 0, 0.75, 1.5, 3, 6, 9, 12 hours; details: 5 µM
[18] = as §2, with “the gut metagenome community of T-03 with ENA study accession number: PRJEB31790” for “Clostridium scindens strain: DSM5676”, “7” for “6”; design: dose 5 uM, timepoint 0, 0.75, 1.5, 3, 6, 9, 12 hours; details: 5 µM
[19] = as §1, with “the gut metagenome community of A-06 with ENA study accession number: PRJEB31790” for “Lactobacillus ruminis strain: ATCC25644”, “7” for “6”; design: dose 5 uM, timepoint 0, 0.75, 1.5, 3, 6, 9, 12 hours; details: 5 µM
[20] = The drug is tested on Eubacterium eligens strain: DSM3376 for biotransformation under anaerobic condition. The drug concentrations were measured over 6 timepoints collected between 0 and 12 hours of incubation by liquid-chromatography-coupled mass spectrometry (LC–MS); design: dose 5 uM, timepoint 0, 1.5, 3, 6, 9, 12 hours; details: lachnospira eligens, 5 µM
[21] = The drug is tested on Coprococcus comes strain: ATCC27758 for biotransformation under anaerobic condition. The drug concentrations were measured over 6 timepoints collected between 0 and 12 hours of incubation by liquid-chromatography-coupled mass spectrometry (LC–MS); design: dose 5 uM, timepoint 0, 1.5, 3, 6, 9, 12 hours; details: 5 µM
[22] = The drug is tested on Parabacteroides merdae strain: DSM19495 for biotransformation under anaerobic condition. The drug concentrations were measured over 6 timepoints collected between 0 and 12 hours of incubation by liquid-chromatography-coupled mass spectrometry (LC–MS); design: dose 5 uM, timepoint 0, 1.5, 3, 6, 9, 12 hours; details: 5 µM
[23] = The drug is tested on Alloscardovia omnicolens strain: DSM21503 for biotransformation under microaerobic condition. The drug concentrations were measured over 6 timepoints collected between 0 and 12 hours of incubation by liquid-chromatography-coupled mass spectrometry (LC–MS); design: dose 5 uM, timepoint 0, 1.5, 3, 6, 9, 12 hours; details: 5 µM
[24] = as §1, with “the gut metagenome community of T-01 with ENA study accession number: PRJEB31790” for “Lactobacillus ruminis strain: ATCC25644”, “7” for “6”; design: dose 5 uM, timepoint 0, 0.75, 1.5, 3, 6, 9, 12 hours; details: 5 µM
[25] = The drug is tested on Capnocytophaga ochracea strain: DSM7271 for biotransformation under microaerobic condition. The drug concentrations were measured over 6 timepoints collected between 0 and 12 hours of incubation by liquid-chromatography-coupled mass spectrometry (LC–MS); design: dose 5 uM, timepoint 0, 1.5, 3, 6, 9, 12 hours; details: 5 µM
[26] = The drug is tested on Lactobacillus gasseri strain: DSM20243 for biotransformation under anaerobic condition. The drug concentrations were measured over 6 timepoints collected between 0 and 12 hours of incubation by liquid-chromatography-coupled mass spectrometry (LC–MS); design: dose 5 uM, timepoint 0, 1.5, 3, 6, 9, 12 hours; details: 5 µM
[27] = as §2, with “the gut metagenome community of A-08 with ENA study accession number: PRJEB31790” for “Clostridium scindens strain: DSM5676”, “7” for “6”; design: dose 5 uM, timepoint 0, 0.75, 1.5, 3, 6, 9, 12 hours; details: 5 µM
[28] = as §2, with “the gut metagenome community of A-04 with ENA study accession number: PRJEB31790” for “Clostridium scindens strain: DSM5676”, “7” for “6”; design: dose 5 uM, timepoint 0, 0.75, 1.5, 3, 6, 9, 12 hours; details: 5 µM
[29] = as §1, with “the gut metagenome community of A-05 with ENA study accession number: PRJEB31790” for “Lactobacillus ruminis strain: ATCC25644”, “7” for “6”; design: dose 5 uM, timepoint 0, 0.75, 1.5, 3, 6, 9, 12 hours; details: 5 µM
[30] = The drug is tested on Bacteroides stercoris strain: HM 1036 for biotransformation under anaerobic condition. The drug concentrations were measured over 6 timepoints collected between 0 and 12 hours of incubation by liquid-chromatography-coupled mass spectrometry (LC–MS); design: dose 5 uM, timepoint 0, 1.5, 3, 6, 9, 12 hours; details: 5 µM

Compound	Bacterial Biotransformation [1]	Bacterial Biotransformation [2]	Bacterial Biotransformation [3]	Bacterial Biotransformation [4]	Bacterial Biotransformation [5]	Bacterial Biotransformation [6]	Bacterial Biotransformation [7]	Bacterial Biotransformation [8]	Bacterial Biotransformation [9]	Bacterial Biotransformation [10]	Bacterial Biotransformation [11]	Bacterial Biotransformation [12]	Bacterial Biotransformation [13]	Bacterial Biotransformation [14]	Bacterial Biotransformation [15]	Bacterial Biotransformation [16]	Bacterial Biotransformation [17]	Bacterial Biotransformation [18]	Bacterial Biotransformation [19]	Bacterial Biotransformation [20]	further results
CN(Cc1cnc2nc(N)nc(N)c2n1)c1ccc(C(=O)N[C@@H](CCC(=O)O)C(=O)O)cc1 [METHOTREXATE]	Compound NOT metabolized	Compound NOT metabolized	Compound NOT metabolized	Compound metabolized	Compound NOT metabolized	Compound NOT metabolized	Compound NOT metabolized	Compound NOT metabolized	Compound NOT metabolized	Compound NOT metabolized	Compound NOT metabolized	Compound NOT metabolized	Compound metabolized	Compound metabolized	Compound NOT metabolized	Compound metabolized	Compound NOT metabolized	Compound NOT metabolized	Compound metabolized	Compound NOT metabolized	Bacterial Biotransformation [21]: Compound metabolized; Bacterial Biotransformation [22]: Compound NOT metabolized; Bacterial Biotransformation [23]: Compound NOT metabolized; Bacterial Biotransformation [24]: Compound metabolized; Bacterial Biotransformation [25]: Compound NOT metabolized; Bacterial Biotransformation [26]: Compound NOT metabolized; Bacterial Biotransformation [27]: Compound metabolized; Bacterial Biotransformation [28]: Compound metabolized; Bacterial Biotransformation [29]: Compound NOT metabolized; Bacterial Biotransformation [30]: Compound NOT metabolized
C[C@H]1C[C@@H]2[C@H]([C@@H](O)C[C@@]3(C)[C@H]2CC[C@]3(O)C(=O)CO)[C@@]2(C)C=CC(=O)C=C12 [METHYLPREDNISOLONE]	Compound NOT metabolized	Compound metabolized	Compound NOT metabolized	Compound metabolized	Compound NOT metabolized	Compound NOT metabolized	Compound NOT metabolized	Compound metabolized	Compound NOT metabolized	Compound NOT metabolized	Compound NOT metabolized	Compound NOT metabolized	Compound metabolized	Compound metabolized	Compound NOT metabolized	Compound metabolized	Compound metabolized	Compound NOT metabolized	Compound metabolized	Compound NOT metabolized	Bacterial Biotransformation [21]: Compound NOT metabolized; Bacterial Biotransformation [22]: Compound NOT metabolized; Bacterial Biotransformation [23]: Compound NOT metabolized; Bacterial Biotransformation [24]: Compound metabolized; Bacterial Biotransformation [25]: Compound NOT metabolized; Bacterial Biotransformation [26]: Compound NOT metabolized; Bacterial Biotransformation [27]: Compound metabolized; Bacterial Biotransformation [28]: Compound metabolized; Bacterial Biotransformation [29]: Compound metabolized; Bacterial Biotransformation [30]: Compound NOT metabolized
COc1c(C)c2c(c(O)c1C/C=C(\C)CCC(=O)OCCN1CCOCC1)C(=O)OC2 [MYCOPHENOLATE MOFETIL]	Compound metabolized	Compound NOT metabolized	Compound metabolized	Compound metabolized	Compound metabolized	Compound NOT metabolized	Compound metabolized	Compound metabolized	Compound metabolized	Compound metabolized	Compound NOT metabolized	Compound metabolized	Compound metabolized	Compound metabolized	Compound NOT metabolized	Compound metabolized	Compound metabolized	Compound metabolized	Compound metabolized	Compound metabolized	Bacterial Biotransformation [21]: Compound NOT metabolized; Bacterial Biotransformation [22]: Compound metabolized; Bacterial Biotransformation [23]: Compound NOT metabolized; Bacterial Biotransformation [24]: Compound metabolized; Bacterial Biotransformation [25]: Compound metabolized; Bacterial Biotransformation [26]: Compound metabolized; Bacterial Biotransformation [27]: Compound metabolized; Bacterial Biotransformation [28]: Compound metabolized; Bacterial Biotransformation [29]: Compound metabolized; Bacterial Biotransformation [30]: Compound metabolized
